The record followed here is patent US20260374756A1, “HETEROCYCLIC COMPOUNDS AS INHIBITORS OF MONOACYLGLYCEROL LIPASE (MAGL)” (Hoffmann-La Roche Inc., priority 2022, published 2026).

SMILES strings stand for the structures.

The target in the test is T1, hMAGL (Homo sapiens, UniProt Q99685).
T1 sequence (Q99685 1-303): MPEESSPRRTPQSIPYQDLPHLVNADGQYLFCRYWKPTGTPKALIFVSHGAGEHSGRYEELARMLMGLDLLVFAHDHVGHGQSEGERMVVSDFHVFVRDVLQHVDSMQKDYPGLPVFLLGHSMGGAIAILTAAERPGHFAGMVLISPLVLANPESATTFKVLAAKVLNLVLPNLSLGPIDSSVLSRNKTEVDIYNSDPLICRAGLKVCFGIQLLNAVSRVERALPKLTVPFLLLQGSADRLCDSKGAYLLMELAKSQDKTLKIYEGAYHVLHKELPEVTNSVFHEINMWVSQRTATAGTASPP
Nature of the test: 2-AG assay: MAGL inhibition, hydrolysis of 2-arachidonoylglycerol to arachidonic acid followed by mass spectrometry. It is filed as biochemical. An outline of the steps:
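MAGL preincubated with compound 15 min at RT in 50 mM Tris, 1 mM EDTA, 0.01% Tween-20, 2.5% DMSO; reaction started with 8 μM 2-AG (final), […], 30 min at RT. Quenched with acetonitrile containing d8-arachidonic acid; arachidonic acid quantified by RapidFire SPE-triple quad MS as arachidonic acid/d8 ratio.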
`O=C(N1CC2(CC(Cc3ncn(CC(F)(F)F)n3)C2)C1)N1CC2(CC(n3cnc(C4(O)CC4)n3)C2)C1` [Example 203, [6-[3-(1-hydroxycyclopropyl)-1,2,4-triazol-1-yl]-2-azaspiro[3.3]heptan-2-yl]-[6-[[1-(2,2,2-trifluoroethyl)-1,2,4-triazol-3-yl]methyl]-2-azaspiro[3.3]heptan-2-yl]methanone] gave a concentration for half-maximal inhibition (IC50) of 135 nM.

In the case of `O=C(N1CC2(CC(n3cnc(C(F)(F)F)n3)C2)C1)N1CC2(CN(Cc3ncc(C(F)F)s3)C2)C1` [Example 187, [6-[[5-(difluoromethyl)thiazol-2-yl]methyl]-2,6-diazaspiro[3.3]heptan-2-yl]-[6-[3-(trifluoromethyl)-1,2,4-triazol-1-yl]-2-azaspiro[3.3]heptan-2-yl]methanone], half-maximal inhibition (IC50) required 15.3 nM.

`N#Cc1cnn(CC2CC3(C2)CN(C(=O)N2CC4(CC(n5cnc(C6(O)CC6)n5)C4)C2)C3)c1` [Example 38] gave an IC50 of 190 nM.

`O=C(N1CC2(CC(n3cnc(C(F)(F)F)n3)C2)C1)N1CC2(CN(Cc3nccn3CC(F)(F)F)C2)C1` [Example 233, [6-[[1-(2,2,2-trifluoroethyl)imidazol-2-yl]methyl]-2,6-diazaspiro[3.3]heptan-2-yl]-[6-[3-(trifluoromethyl)-1,2,4-triazol-1-yl]-2-azaspiro[3.3]heptan-2-yl]methanone] returned an IC50 of 176 nM.

As to `Cn1nc(C(F)(F)F)cc1CN1CCC2(CC1)CN(C(=O)N1CC3(CC(n4cnc(C(F)(F)F)n4)C3)C1)C2` [Example 25], half-maximal inhibition (IC50) required 25.2 nM.

In the case of `O=C(N1CC2(CC(Cc3nc(C(F)(F)F)c[nH]3)C2)C1)N1CC2(CC(n3cnc(C(F)(F)F)n3)C2)C1` [Example 348, [6-[[4-(trifluoromethyl)-1H-imidazol-2-yl]methyl]-2-azaspiro[3.3]heptan-2-yl]-[6-[3-(trifluoromethyl)-1,2,4-triazol-1-yl]-2-azaspiro[3.3]heptan-2-yl]methanone], the half-maximal inhibitory concentration (IC50) was 1.51 nM.

Consider `O=C(N1CC2(CCN(Cc3nc(C(F)(F)F)cs3)CC2)C1)N1CC2(CC(n3cnc(C4(O)CC4)n3)C2)C1` [Example 175, [6-[3-(1-hydroxycyclopropyl)-1,2,4-triazol-1-yl]-2-azaspiro[3.3]heptan-2-yl]-[7-[[4-(trifluoromethyl)thiazol-2-yl]methyl]-2,7-diazaspiro[3.5]nonan-2-yl]methanone], for which the IC50 came out at 81.2 nM.

In turn, `Cc1onc(C2CC2)c1CN1CC2(C1)CN(C(=O)N1CC3(CC(n4cnc(C5(O)CC5)n4)C3)C1)C2` [Example 269, [6-[(3-cyclopropyl-5-methyl-isoxazol-4-yl)methyl]-2,6-diazaspiro[3.3]heptan-2-yl]-[6-[3-(1-hydroxycyclopropyl)-1,2,4-triazol-1-yl]-2-azaspiro[3.3]heptan-2-yl]methanone] returned a 50% inhibitory concentration (IC50) of 311 nM.

The compound `O=C(N1CC2(CC(n3cnc(C(F)(F)F)n3)C2)C1)N1CC2(CN(Cc3cn[nH]c3C(F)(F)F)C2)C1` [Example 49, [6-[[5-(trifluoromethyl)-1H-pyrazol-4-yl]methyl]-2,6-diazaspiro[3.3]heptan-2-yl]-[6-[3-(trifluoromethyl)-1,2,4-triazol-1-yl]-2-azaspiro[3.3]heptan-2-yl]methanone] returned a 50% inhibitory concentration (IC50) of 47.8 nM.

`O=C(N1CC2(CC(Cc3cc(C(F)F)n[nH]3)C2)C1)N1CC2(CC(c3cc(C4CC4)n[nH]3)C2)C1` [Example 294, [6-(3-cyclopropyl-1H-pyrazol-5-yl)-2-azaspiro[3.3]heptan-2-yl]-[6-[[3-(difluoromethyl)-1H-pyrazol-5-yl]methyl]-2-azaspiro[3.3]heptan-2-yl]methanone] gave an IC50 of 0.33 nM.

As for `O=C(N1CC2(CC(n3cnc(C4CC4)n3)C2)C1)N1CC2(CN(Cc3nnn(CC(F)(F)F)n3)C2)C1` [Example 194, [6-(3-cyclopropyl-1,2,4-triazol-1-yl)-2-azaspiro[3.3]heptan-2-yl]-[6-[[2-(2,2,2-trifluoroethyl)tetrazol-5-yl]methyl]-2,6-diazaspiro[3.3]heptan-2-yl]methanone], it took 149 nM to reach half-maximal inhibition (IC50).

What is called IC50 is the concentration that gives 50% inhibition. Read a high IC50 as weaker potency in that assay.
